Tests used:
Experiment in all cases: biochemical
HCoV-229E 3CL^pro = biological target: T1, HCoV-229E 3CL^pro (Human coronavirus 229E, UniProt P0C6X1)
T1 construct: […]; made in house; host or cells: E. coli BL21 (DE3)

SARS-CoV 3CL^pro = SARS-CoV 3CL^pro (Severe acute respiratory syndrome coronavirus, UniProt P0C6X7)
MERS-CoV 3CL^pro = MERS-CoV 3CL^pro (Middle East respiratory syndrome-related coronavirus, UniProt K9N7C7)
SARS-CoV-2 3CL^pro = biological target: T2, SARS-CoV-2 3CL^pro (Severe acute respiratory syndrome coronavirus 2, UniProt P0DTD1)
T2 construct: […]; made in house; host or cells: Escherichia coli

Sequence of MERS-CoV 3CL^pro (K9N7C7 3248-3553): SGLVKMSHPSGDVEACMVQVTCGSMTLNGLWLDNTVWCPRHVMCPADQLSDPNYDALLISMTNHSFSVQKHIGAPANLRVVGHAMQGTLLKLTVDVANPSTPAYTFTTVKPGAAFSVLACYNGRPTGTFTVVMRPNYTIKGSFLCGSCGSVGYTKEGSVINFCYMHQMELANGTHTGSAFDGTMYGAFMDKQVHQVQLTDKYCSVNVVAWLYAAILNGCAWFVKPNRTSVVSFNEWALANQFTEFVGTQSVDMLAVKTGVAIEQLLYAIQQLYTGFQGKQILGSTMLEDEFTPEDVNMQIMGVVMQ
T1 sequence (P0C6X1 2966-3267): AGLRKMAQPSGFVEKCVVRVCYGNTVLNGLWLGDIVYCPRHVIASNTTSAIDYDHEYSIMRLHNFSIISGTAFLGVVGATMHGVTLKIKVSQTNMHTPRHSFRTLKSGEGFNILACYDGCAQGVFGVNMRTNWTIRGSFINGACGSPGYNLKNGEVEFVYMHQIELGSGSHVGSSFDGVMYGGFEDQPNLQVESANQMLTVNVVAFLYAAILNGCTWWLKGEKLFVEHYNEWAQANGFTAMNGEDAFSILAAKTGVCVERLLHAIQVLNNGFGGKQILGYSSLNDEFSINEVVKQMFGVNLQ

CC1(C)C[C@@H](CN(NC(=O)[C@@H]2[C@H]3CCC[C@H]3CN2C(=O)[C@@H](NC(=O)[C@H](F)Cl)C(C)(C)C)C(=O)[C@H](F)Cl)C(=O)N1 [Example 14, (2R)-N-[(1S)-1-[(3S,3aS,6aR)-3-[[[(2R)-2-chloro-2-fluoro-acetyl]-[[(3S)-5,5-dimethyl-2-oxo-pyrrolidin-3-yl]methyl]amino]carbamoyl]-3,3a,4,5,6,6a-hexahydro-1H-cyclopenta[c]pyrrole-2-carbonyl]-2,2-dimethyl-propyl]-2-chloro-2-fluoro-acetamide]
IC50 (HCoV-229E 3CL^pro): 1270 nM | IC50 (SARS-CoV 3CL^pro): 9 nM | IC50 (MERS-CoV 3CL^pro): 1240 nM | IC50 (SARS-CoV-2 3CL^pro): 9 nM

CC1(C)C[C@@H](CN(NC(=O)[C@@H]2[C@H]3CCC[C@H]3CN2C(=O)[C@@H](NC(=O)[C@@H](F)Cl)C(C)(C)C)C(=O)[C@H](F)Cl)C(=O)N1 [Example 15, (2S)-N-[(1S)-1-[(3S,3aS,6aR)-3-[[[(2R)-2-chloro-2-fluoro-acetyl]-[[(3S)-5,5-dimethyl-2-oxo-pyrrolidin-3-yl]methyl]amino]carbamoyl]-3,3a,4,5,6,6a-hexahydro-1H-cyclopenta[c]pyrrole-2-carbonyl]-2,2-dimethyl-propyl]-2-chloro-2-fluoro-acetamide]
IC50 (HCoV-229E 3CL^pro): 589 nM | IC50 (SARS-CoV 3CL^pro): 12 nM | IC50 (MERS-CoV 3CL^pro): 488 nM | IC50 (SARS-CoV-2 3CL^pro): 11 nM

CC1(C)C[C@@H](CN(NC(=O)[C@@H]2[C@H]3CCC[C@H]3CN2C(=O)[C@@H](NC(=O)[C@H](F)Cl)C(C)(C)C)C(=O)[C@@H](F)Cl)C(=O)N1 [Example 16]
IC50 (HCoV-229E 3CL^pro): > 10000 nM | IC50 (SARS-CoV 3CL^pro): 33 nM | IC50 (MERS-CoV 3CL^pro): 6160 nM | IC50 (SARS-CoV-2 3CL^pro): 22 nM

CC1(C)C[C@@H](CN(NC(=O)[C@@H]2[C@H]3CCC[C@H]3CN2C(=O)[C@@H](NC(=O)[C@@H](F)Cl)C(C)(C)C)C(=O)[C@@H](F)Cl)C(=O)N1 [Example 17]
IC50 (HCoV-229E 3CL^pro): 4260 nM | IC50 (SARS-CoV 3CL^pro): 19 nM | IC50 (MERS-CoV 3CL^pro): 1870 nM | IC50 (SARS-CoV-2 3CL^pro): 16 nM

CCC(CC)[C@H](NC(=O)C(F)F)C(=O)N1C[C@@H]2CCC[C@@H]2[C@H]1C(=O)NN(C[C@H]1CC(C)(C)NC1=O)C(=O)[C@@H](F)Cl [Example 18, N-[(1S)-1-[(3S,3aS,6aR)-3-[[[(2S)-2-chloro-2-fluoro-acetyl]-[[(3R)-5,5-dimethyl-2-oxo-pyrrolidin-3-yl]methyl]amino]carbamoyl]-3,3a,4,5,6,6a-hexahydro-1H-cyclopenta[c]pyrrole-2-carbonyl]-2-ethyl-butyl]-2,2-difluoro-acetamide]
IC50 (HCoV-229E 3CL^pro): 332 nM | IC50 (SARS-CoV 3CL^pro): 23 nM | IC50 (MERS-CoV 3CL^pro): 345 nM | IC50 (SARS-CoV-2 3CL^pro): 12 nM

CC[C@H](C)[C@H](NC(=O)C1(F)CC1)C(=O)N1C[C@H]2[C@@H]([C@H]1C(=O)NN(C[C@H]1CC(C)(C)NC1=O)C(=O)[C@@H](F)Cl)C2(C)C [Example 19, N-[(1S,2S)-1-[(1R,2S,5S)-2-[[[(2S)-2-chloro-2-fluoro-acetyl]-[[(3R)-5,5-dimethyl-2-oxo-pyrrolidin-3-yl]methyl]amino]carbamoyl]-6,6-dimethyl-3-azabicyclo[3.1.0]hexane-3-carbonyl]-2-methyl-butyl]-1-fluoro-cyclopropanecarboxamide]
IC50 (HCoV-229E 3CL^pro): 834 nM | IC50 (SARS-CoV 3CL^pro): 32 nM | IC50 (MERS-CoV 3CL^pro): 553 nM | IC50 (SARS-CoV-2 3CL^pro): 19 nM

CC1(C)C[C@@H](CN(NC(=O)[C@@H]2[C@@H]3[C@H](CN2C(=O)[C@@H](NC(=O)[C@H](F)Cl)C(C)(C)C)C3(C)C)C(=O)[C@H](F)Cl)C(=O)N1 [Example 20]
IC50 (HCoV-229E 3CL^pro): 2020 nM | IC50 (SARS-CoV 3CL^pro): 32 nM | IC50 (MERS-CoV 3CL^pro): 1070 nM | IC50 (SARS-CoV-2 3CL^pro): 24 nM

CC1(C)C[C@@H](CN(NC(=O)[C@@H]2[C@@H]3[C@H](CN2C(=O)[C@@H](NC(=O)[C@@H]2CC2(F)F)C(C)(C)C)C3(C)C)C(=O)[C@H](F)Cl)C(=O)N1 [Example 21, (1S)-N-[(1S)-1-[(1R,2S,5S)-2-[[[(2R)-2-chloro-2-fluoro-acetyl]-[[(3S)-5,5-dimethyl-2-oxo-pyrrolidin-3-yl]methyl]amino]carbamoyl]-6,6-dimethyl-3-azabicyclo[3.1.0]hexane-3-carbonyl]-2,2-dimethyl-propyl]-2,2-difluoro-cyclopropanecarboxamide]
IC50 (HCoV-229E 3CL^pro): 778 nM | IC50 (SARS-CoV 3CL^pro): 22 nM | IC50 (MERS-CoV 3CL^pro): 402 nM | IC50 (SARS-CoV-2 3CL^pro): 14 nM

CC1(C)C[C@@H](CN(NC(=O)[C@@H]2[C@@H]3[C@H](CN2C(=O)[C@@H](NC(=O)[C@@H](F)Cl)C(C)(C)C)C3(C)C)C(=O)[C@@H](F)Cl)C(=O)N1 [Example 22, (2S)-2-chloro-N-[(1S)-1-[(1R,2S,5S)-2-[[[(2S)-2-chloro-2-fluoro-acetyl]-[[(3S)-5,5-dimethyl-2-oxo-pyrrolidin-3-yl]methyl]amino]carbamoyl]-6,6-dimethyl-3-azabicyclo[3.1.0]hexane-3-carbonyl]-2,2-dimethyl-propyl]-2-fluoro-acetamide]
IC50 (HCoV-229E 3CL^pro): 3520 nM | IC50 (SARS-CoV 3CL^pro): 48 nM | IC50 (MERS-CoV 3CL^pro): 1870 nM | IC50 (SARS-CoV-2 3CL^pro): 31 nM

CC1(C)C[C@@H](CN(NC(=O)[C@@H]2[C@@H]3[C@H](CN2C(=O)[C@@H](NC(=O)[C@@H]2CC2(F)F)C(C)(C)C)C3(C)C)C(=O)[C@@H](F)Cl)C(=O)N1 [Example 23, (1S)-N-[(1S)-1-[(1R,2S,5S)-2-[[[(2S)-2-chloro-2-fluoro-acetyl]-[[(3S)-5,5-dimethyl-2-oxo-pyrrolidin-3-yl]methyl]amino]carbamoyl]-6,6-dimethyl-3-azabicyclo[3.1.0]hexane-3-carbonyl]-2,2-dimethyl-propyl]-2,2-difluoro-cyclopropanecarboxamide]
IC50 (HCoV-229E 3CL^pro): 5430 nM | IC50 (SARS-CoV 3CL^pro): 85 nM | IC50 (MERS-CoV 3CL^pro): 2080 nM | IC50 (SARS-CoV-2 3CL^pro): 54 nM

CC1(C)C[C@H](CN(NC(=O)[C@@H]2[C@@H]3[C@H](CN2C(=O)[C@@H](NC(=O)[C@@H]2CC2(F)F)C(C)(C)C)C3(C)C)C(=O)[C@H](F)Cl)C(=O)N1 [Example 24, (1S)-N-[(1S)-1-[(1R,2S,5S)-2-[[[(2R)-2-chloro-2-fluoro-acetyl]-[[(3R)-5,5-dimethyl-2-oxo-pyrrolidin-3-yl]methyl]amino]carbamoyl]-6,6-dimethyl-3-azabicyclo[3.1.0]hexane-3-carbonyl]-2,2-dimethyl-propyl]-2,2-difluoro-cyclopropanecarboxamide]
IC50 (HCoV-229E 3CL^pro): 2250 nM | IC50 (SARS-CoV 3CL^pro): 177 nM | IC50 (MERS-CoV 3CL^pro): 1400 nM | IC50 (SARS-CoV-2 3CL^pro): 87 nM

CC(C)(C)[C@H](NC(=O)[C@@H]1CC1(F)F)C(=O)N1C[C@@H]2CCC[C@@H]2[C@H]1C(=O)NN(C[C@@H]1CC2(CC2)NC1=O)C(=O)[C@H](F)Cl [Example 25]
IC50 (HCoV-229E 3CL^pro): 40 nM | IC50 (SARS-CoV 3CL^pro): 14 nM | IC50 (MERS-CoV 3CL^pro): 62 nM | IC50 (SARS-CoV-2 3CL^pro): 12 nM

CC(C)(C)[C@H](NC(=O)[C@@H]1CC1(F)F)C(=O)N1C[C@@H]2CCC[C@@H]2[C@H]1C(=O)NN(C[C@H]1CC2(CC2)NC1=O)C(=O)[C@H](F)Cl [Example 26, (1S)-N-[(1S)-1-[(3S,3aS,6aR)-3-[[[(2R)-2-chloro-2-fluoro-acetyl]-[[(6R)-5-oxo-4-azaspiro[2.4]heptan-6-yl]methyl]amino]carbamoyl]-3,3a,4,5,6,6a-hexahydro-1H-cyclopenta[c]pyrrole-2-carbonyl]-2,2-dimethyl-propyl]-2,2-difluoro-cyclopropanecarboxamide]
IC50 (HCoV-229E 3CL^pro): 45 nM | IC50 (SARS-CoV 3CL^pro): 11 nM | IC50 (MERS-CoV 3CL^pro): 111 nM | IC50 (SARS-CoV-2 3CL^pro): 12 nM

C[C@H]1C[C@@H](CN(NC(=O)[C@@H]2[C@H]3CCC[C@H]3CN2C(=O)[C@@H](NC(=O)[C@@H]2CC2(F)F)C(C)(C)C)C(=O)[C@H](F)Cl)C(=O)N1 [Example 27, (1S)-N-[(1S)-1-[(3S,3aS,6aR)-3-[[[(2R)-2-chloro-2-fluoro-acetyl]-[[(3S,5S)-5-methyl-2-oxo-pyrrolidin-3-yl]methyl]amino]carbamoyl]-3,3a,4,5,6,6a-hexahydro-1H-cyclopenta[c]pyrrole-2-carbonyl]-2,2-dimethyl-propyl]-2,2-difluoro-cyclopropanecarboxamide]
IC50 (HCoV-229E 3CL^pro): 30 nM | IC50 (SARS-CoV 3CL^pro): 10 nM | IC50 (MERS-CoV 3CL^pro): 63 nM | IC50 (SARS-CoV-2 3CL^pro): 6 nM

C[C@H]1C[C@H](CN(NC(=O)[C@@H]2[C@H]3CCC[C@H]3CN2C(=O)[C@@H](NC(=O)[C@@H]2CC2(F)F)C(C)(C)C)C(=O)[C@H](F)Cl)C(=O)N1 [Example 28, (1S)-N-[(1S)-1-[(3S,3aS,6aR)-3-[[[(2R)-2-chloro-2-fluoro-acetyl]-[[(3R,5S)-5-methyl-2-oxo-pyrrolidin-3-yl]methyl]amino]carbamoyl]-3,3a,4,5,6,6a-hexahydro-1H-cyclopenta[c]pyrrole-2-carbonyl]-2,2-dimethyl-propyl]-2,2-difluoro-cyclopropanecarboxamide]
IC50 (HCoV-229E 3CL^pro): 492 nM | IC50 (SARS-CoV 3CL^pro): 74 nM | IC50 (MERS-CoV 3CL^pro): 1160 nM | IC50 (SARS-CoV-2 3CL^pro): 30 nM

C[C@@H]1C[C@H](CN(NC(=O)[C@@H]2[C@H]3CCC[C@H]3CN2C(=O)[C@@H](NC(=O)[C@@H]2CC2(F)F)C(C)(C)C)C(=O)[C@@H](F)Cl)C(=O)N1 [Example 29, (1S)-N-[(1S)-1-[(3S,3aS,6aR)-3-[[[(2S)-2-chloro-2-fluoro-acetyl]-[[(3R,5R)-5-methyl-2-oxo-pyrrolidin-3-yl]methyl]amino]carbamoyl]-3,3a,4,5,6,6a-hexahydro-1H-cyclopenta[c]pyrrole-2-carbonyl]-2,2-dimethyl-propyl]-2,2-difluoro-cyclopropanecarboxamide]
IC50 (HCoV-229E 3CL^pro): 233 nM | IC50 (SARS-CoV 3CL^pro): 93 nM | IC50 (MERS-CoV 3CL^pro): 344 nM | IC50 (SARS-CoV-2 3CL^pro): 36 nM

C[C@@H]1C[C@@H](CN(NC(=O)[C@@H]2[C@H]3CCC[C@H]3CN2C(=O)[C@@H](NC(=O)[C@@H]2CC2(F)F)C(C)(C)C)C(=O)[C@@H](F)Cl)C(=O)N1 [Example 30, (1S)-N-[(1S)-1-[(3S,3aS,6aR)-3-[[[(2S)-2-chloro-2-fluoro-acetyl]-[[(3S,5R)-5-methyl-2-oxo-pyrrolidin-3-yl]methyl]amino]carbamoyl]-3,3a,4,5,6,6a-hexahydro-1H-cyclopenta[c]pyrrole-2-carbonyl]-2,2-dimethyl-propyl]-2,2-difluoro-cyclopropanecarboxamide]
IC50 (HCoV-229E 3CL^pro): 66 nM | IC50 (SARS-CoV 3CL^pro): 11 nM | IC50 (MERS-CoV 3CL^pro): 91 nM | IC50 (SARS-CoV-2 3CL^pro): 8 nM
